Reference: paper PMC5573538, “Contrasting effects of phosphatidylinositol 4,5‐bisphosphate on cloned TMEM16A and TMEM16B channels” (British Journal of Pharmacology, 2017)

How the values were obtained:
TMEM16B = molecular target: T1, TMEM16B (Mus musculus, UniProt Q8CFW1); test: inside-out patch clamp, excised patches from HEK-293T cells, +[…] mV, […] Ca2+ (partial current inhibition); format: biochemical; details: read-out: K i
T1 construct: gene Ano2; mouse TMEM16B isoform A, expressed in HEK-293T cells
T1 sequence (Q8CFW1 1-1002): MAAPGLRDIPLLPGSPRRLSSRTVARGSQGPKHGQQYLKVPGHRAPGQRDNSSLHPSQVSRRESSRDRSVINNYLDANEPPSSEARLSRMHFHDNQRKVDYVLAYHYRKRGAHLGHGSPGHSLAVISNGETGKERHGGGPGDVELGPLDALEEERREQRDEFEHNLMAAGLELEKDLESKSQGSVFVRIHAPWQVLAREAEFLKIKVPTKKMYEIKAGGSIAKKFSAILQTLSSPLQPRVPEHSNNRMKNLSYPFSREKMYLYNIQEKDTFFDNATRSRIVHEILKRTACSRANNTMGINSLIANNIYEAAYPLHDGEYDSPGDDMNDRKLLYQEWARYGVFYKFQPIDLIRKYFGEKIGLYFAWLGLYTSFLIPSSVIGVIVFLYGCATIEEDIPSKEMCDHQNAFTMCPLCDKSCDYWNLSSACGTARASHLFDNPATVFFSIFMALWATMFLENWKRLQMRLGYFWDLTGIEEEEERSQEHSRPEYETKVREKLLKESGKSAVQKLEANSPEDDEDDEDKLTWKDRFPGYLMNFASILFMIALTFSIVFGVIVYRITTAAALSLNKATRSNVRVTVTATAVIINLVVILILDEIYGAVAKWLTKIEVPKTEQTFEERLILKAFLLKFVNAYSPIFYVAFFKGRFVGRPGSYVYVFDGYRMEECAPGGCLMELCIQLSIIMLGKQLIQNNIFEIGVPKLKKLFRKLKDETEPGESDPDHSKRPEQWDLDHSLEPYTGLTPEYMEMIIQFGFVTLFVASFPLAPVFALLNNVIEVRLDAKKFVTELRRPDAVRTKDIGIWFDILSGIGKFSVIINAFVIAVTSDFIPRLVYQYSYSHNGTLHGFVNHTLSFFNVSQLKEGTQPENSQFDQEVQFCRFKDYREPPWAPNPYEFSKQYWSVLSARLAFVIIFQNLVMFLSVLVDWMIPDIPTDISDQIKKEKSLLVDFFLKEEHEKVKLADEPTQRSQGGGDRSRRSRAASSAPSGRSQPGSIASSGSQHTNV

TMEM16A = molecular target: T2, TMEM16A (Mus musculus, UniProt Q8BHY3); test: inside-out patch clamp, excised patches from HEK-293T cells, +[…] mV, […] Ca2+ (current activation); format: biochemical; details: read-out: K a
T2 construct: gene Ano1; mouse TMEM16A isoform (ac), expressed in HEK-293T cells
T2 sequence (Q8BHY3 1-960): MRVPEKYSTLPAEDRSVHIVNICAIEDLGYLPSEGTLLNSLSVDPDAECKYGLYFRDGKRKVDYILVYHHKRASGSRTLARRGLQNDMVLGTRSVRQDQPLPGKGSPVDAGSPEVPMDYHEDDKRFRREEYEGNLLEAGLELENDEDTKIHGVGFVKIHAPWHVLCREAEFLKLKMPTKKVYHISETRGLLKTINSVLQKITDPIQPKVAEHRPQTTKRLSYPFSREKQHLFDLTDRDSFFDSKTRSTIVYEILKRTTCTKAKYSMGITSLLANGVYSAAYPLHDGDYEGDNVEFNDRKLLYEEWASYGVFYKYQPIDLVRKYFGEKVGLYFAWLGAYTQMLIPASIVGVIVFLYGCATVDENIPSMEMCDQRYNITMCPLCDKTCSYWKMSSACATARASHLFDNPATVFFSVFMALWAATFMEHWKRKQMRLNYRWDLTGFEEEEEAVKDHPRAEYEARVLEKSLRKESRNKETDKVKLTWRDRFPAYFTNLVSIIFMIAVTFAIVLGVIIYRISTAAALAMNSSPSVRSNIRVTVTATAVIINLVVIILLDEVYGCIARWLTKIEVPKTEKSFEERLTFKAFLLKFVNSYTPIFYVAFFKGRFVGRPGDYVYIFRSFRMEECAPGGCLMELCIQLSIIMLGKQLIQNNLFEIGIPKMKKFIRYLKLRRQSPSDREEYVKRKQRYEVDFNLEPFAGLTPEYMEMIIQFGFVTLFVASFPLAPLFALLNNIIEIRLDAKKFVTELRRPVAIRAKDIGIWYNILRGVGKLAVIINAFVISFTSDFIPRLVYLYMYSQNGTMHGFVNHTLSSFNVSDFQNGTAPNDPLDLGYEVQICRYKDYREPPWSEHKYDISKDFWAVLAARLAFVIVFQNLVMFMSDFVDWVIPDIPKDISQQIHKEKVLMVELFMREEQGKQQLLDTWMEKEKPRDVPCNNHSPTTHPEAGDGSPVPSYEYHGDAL

- IC50 (TMEM16B): 46 ± 2 µM
- EC50 (TMEM16A): 53 ± 9 µM
SMILES: CCCCCCCC(=O)OC[C@H](COP(=O)(O)O[C@@H]1[C@H](O)[C@H](O)[C@@H](OP(=O)(O)O)[C@H](OP(=O)(O)O)[C@H]1O)OC(=O)CCCCCCC [diC8‐PIP2]
